The values below come from patent US10711041B2, “Lyophilisate containing a cyclic peptide of formula X1-[sequence]-X2” (priority 2013, dated 2020).

Bridges are numbered along the chain shown (N, C = ends). Where no end group is shown, it is not given here.

In data set [1] the target is T1, amilorid-sensitive Sodium Ion Channel (ENaC) (Homo sapiens, UniProt P37088).
T1 construct: Macroscopic Sodium Ion Currents were derived from human lung epithelian cells A549; endogenous in cells; host or cells: A549 human lung epithelial cells
T1 sequence (P37088 1-669): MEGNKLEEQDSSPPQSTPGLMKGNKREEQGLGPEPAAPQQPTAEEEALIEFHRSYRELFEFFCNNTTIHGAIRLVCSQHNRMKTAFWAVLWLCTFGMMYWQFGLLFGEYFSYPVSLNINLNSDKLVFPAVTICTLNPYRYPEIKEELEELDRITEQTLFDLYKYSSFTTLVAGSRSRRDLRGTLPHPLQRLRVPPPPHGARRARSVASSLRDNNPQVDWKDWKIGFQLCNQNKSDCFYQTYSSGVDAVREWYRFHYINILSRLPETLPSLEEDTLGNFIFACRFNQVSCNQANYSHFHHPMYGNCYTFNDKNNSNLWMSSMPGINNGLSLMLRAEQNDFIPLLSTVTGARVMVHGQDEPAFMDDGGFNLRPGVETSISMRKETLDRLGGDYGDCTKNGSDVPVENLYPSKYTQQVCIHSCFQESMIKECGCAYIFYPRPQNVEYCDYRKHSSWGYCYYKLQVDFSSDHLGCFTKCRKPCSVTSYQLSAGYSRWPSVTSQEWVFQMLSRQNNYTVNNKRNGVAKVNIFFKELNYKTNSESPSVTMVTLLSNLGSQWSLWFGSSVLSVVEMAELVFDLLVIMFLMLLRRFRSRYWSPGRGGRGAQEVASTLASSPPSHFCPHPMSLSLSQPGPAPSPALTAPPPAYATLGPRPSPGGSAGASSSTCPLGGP
T1 sequence (P51168 1-640 partner): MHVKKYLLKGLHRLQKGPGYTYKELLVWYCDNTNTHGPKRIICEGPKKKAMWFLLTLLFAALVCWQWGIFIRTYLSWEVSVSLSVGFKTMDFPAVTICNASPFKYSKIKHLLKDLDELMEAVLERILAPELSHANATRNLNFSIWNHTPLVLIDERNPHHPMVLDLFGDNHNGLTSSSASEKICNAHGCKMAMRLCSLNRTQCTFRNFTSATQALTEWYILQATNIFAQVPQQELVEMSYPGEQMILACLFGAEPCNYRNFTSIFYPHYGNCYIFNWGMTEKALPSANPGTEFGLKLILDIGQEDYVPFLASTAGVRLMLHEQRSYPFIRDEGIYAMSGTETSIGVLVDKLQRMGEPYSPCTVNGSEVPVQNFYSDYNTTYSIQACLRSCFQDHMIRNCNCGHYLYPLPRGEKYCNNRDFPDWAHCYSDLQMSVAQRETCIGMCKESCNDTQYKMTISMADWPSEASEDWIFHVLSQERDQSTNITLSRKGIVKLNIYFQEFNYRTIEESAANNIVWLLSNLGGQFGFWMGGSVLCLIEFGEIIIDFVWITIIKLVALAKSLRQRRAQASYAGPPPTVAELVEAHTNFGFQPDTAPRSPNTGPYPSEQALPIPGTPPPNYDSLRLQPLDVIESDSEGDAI
T1 sequence (P51170 1-649 partner): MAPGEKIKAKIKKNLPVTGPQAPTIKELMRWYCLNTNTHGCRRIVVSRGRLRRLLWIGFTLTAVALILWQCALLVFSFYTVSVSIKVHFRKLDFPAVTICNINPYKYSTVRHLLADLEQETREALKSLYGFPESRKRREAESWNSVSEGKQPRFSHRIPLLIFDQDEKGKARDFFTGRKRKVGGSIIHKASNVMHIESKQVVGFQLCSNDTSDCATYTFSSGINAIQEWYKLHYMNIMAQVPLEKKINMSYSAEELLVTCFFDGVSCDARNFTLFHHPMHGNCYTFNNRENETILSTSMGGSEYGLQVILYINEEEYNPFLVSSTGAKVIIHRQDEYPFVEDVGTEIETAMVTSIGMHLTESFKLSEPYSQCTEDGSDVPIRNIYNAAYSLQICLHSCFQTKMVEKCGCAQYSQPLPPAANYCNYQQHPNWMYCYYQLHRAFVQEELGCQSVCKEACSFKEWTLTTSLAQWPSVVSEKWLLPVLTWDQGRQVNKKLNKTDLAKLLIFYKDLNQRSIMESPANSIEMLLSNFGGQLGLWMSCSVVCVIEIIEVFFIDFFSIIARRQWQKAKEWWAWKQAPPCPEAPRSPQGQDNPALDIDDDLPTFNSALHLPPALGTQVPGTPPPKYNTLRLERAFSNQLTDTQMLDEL
The data set is described as follows: Patch Clamp whole cell sodium current in deglycosylated (PNGase F) and untreated A549 cells. In kind it is cell-based. The settings on record: peptide 240 nM, Eh = −100 mV. Here is the method:
[…] After control recordings, 240 nM of the peptide of amino acid sequence SEQ ID NO:1 was added to the bath solution. […] Whole cell currents were recorded at Eh=−100 mV. The concentration of the peptides of amino acid sequence SEQ ID NO:1 to SEQ ID NO:7 in the bath solution was 240 nM.
For orientation: In patch-clamp work, channel activity is measured electrically.

Data set [2] can be described thus: Breathing simulator, amount of aerosol available for inhalation. In kind it is physicochemical. The settings on record: nebulizers Type A and Type B. The procedure: It is ramblingly known, that in practice from a generated aerosol only a part is available for the patient. Thus, for determining the amount of aerosol which is available for a user, trials with a breathing simulator were carried out. For investigating the particle size and for the implementation of the breathing simulation an aerosol from an aqueous solution of the cyclic peptide of amino acid sequence SEQ ID NO:1 was used. For generating aerosol different nebulizer types were used. The nebulizers A and B were so called “Mesh-Type nebulizers”.

The nature of data set [3]: Stability of the aqueous solution before inhalation (visual inspection, reverse HPLC). It counts as physicochemical. Here is the method:
For that reason the stability of an aqueous solution was investigated exemplarily. The ready to use-solution therefore was stored either in a syringe commonly used in laboratory, at 2 to 8° C. for 7 days, or in a container of a nebulizer at 25° C. for 24 hours. […] The methods used therefore were analytical methods commonly used in laboratory, as for example the visual inspection, as well as analysis by means of reverse HPLC.

Data set [4] can be described thus: Stability investigation of the lyophilisate (visual inspection, reverse HPLC). It counts as physicochemical. The procedure: For that the lyophilisate was stored up to 24 months at 2 to 8° C. and up to 6 months at 25° C. at 60% relative humidity. Stability was investigated at different time points during that period. In particular the appearance, contents, as well as purity of the cyclic peptides were investigated. For that laboratory-common analytical processes were used, such as e.g. visual inspection and reverse HPLC.

The mark [5] stands for this setting: laboratory syringe, 2 to 8° C., T = 0 to 7 days.
[6] abbreviates: storage container of a nebulizer, 25° C., T = 0 to 24 hours.

Consider “Cyclo(CGQREAPAGAAAKPWYC) (disulfide 1-17) [SEQ ID NO: 7, reference compound]”, for which the “whole cell sodium current” value is on record as “No activity” in data set [1] (no pretreatment with PNGase F); “no activity” in data set [1] (no pretreatment with PNGase F, listed as SEQ ID NO:7); “No activity” in data set [1] (pre-treatment with PNGase F).
In the case of `C[C@@H]1NC(=O)CNC(=O)[C@H](CCC(=O)O)NC(=O)[C@@H]2CCCN2C(=O)[C@H]([C@@H](C)O)NC(=O)[C@H](CCC(=O)O)NC(=O)[C@H](CCCNC(=N)N)NC(=O)[C@H](CCC(N)=O)NC(=O)CNC(=O)[C@@H](N)CSSC[C@@H](C(=O)O)NC(=O)[C@H](Cc2ccc(O)cc2)NC(=O)[C@H](Cc2c[nH]c3ccccc23)NC(=O)[C@@H]2CCCN2C(=O)[C@H](CCCCN)NC(=O)[C@H](C)NC(=O)[C@H](CCC(=O)O)NC1=O` [SEQ ID NO: 1], the “whole cell sodium current” value in data set [1] (no pretreatment with PNGase F) is 1073.3 ± 15.1 pA; in data set [1] (pre-treatment with PNGase F) it was 19.6 pA (n = 3). For the same molecule, the “part of the aerosol available for inhalation (inhalation filter)” value in data set [2] is given as “predominant part”. The “Purity of aqueous solution (stability study)” value in data set [3] (laboratory syringe, 2 to 8° C., T = 0) was found to be 96.3%; in data set [3] (laboratory syringe, 2 to 8° C., T = 7 days) it was 96.2%; in data set [3] (storage container of a nebulizer, 25° C., T = 0), 96.6%; in data set [3] (storage container of a nebulizer, 25° C., T = 24 hours), 96.5%. Moreover, the “Amount/contents of aqueous solution” value in data set [3] (setting [5]) and in data set [3] (setting [6]) was 25 mg/mL each time. The “Appearance of aqueous solution” value in data set [3] (setting [5]) and in data set [3] (setting [6]) was “clear solution” throughout. Moreover, the Amount/Contents of lyophilisate in data set [4] (storage 2-8° C., T = 0) amounted to 100%; in data set [4] (storage 2-8° C., T = 24 M), 99%; in data set [4] (storage 25° C./60% rH, T = 0) it was 100%; in data set [4] (storage 25° C./60% rH, T = 6 M) it was 99%. Besides, the “Purity of lyophilisate (stability study)” value turned out to be 96% in data set [4] (storage 2-8° C., T = 0); 96% in data set [4] (storage 2-8° C., T = 24 M); 96% in data set [4] (storage 25° C./60% rH, T = 0); 95% in data set [4] (storage 25° C./60% rH, T = 6 M). In addition, the Appearence of lyophilisate result is recorded as “white powder” in data set [4] (storage 2-8° C., T = 0 to T = 24 M) and “white powder” in data set [4] (storage 25° C./60% rH, T = 0 to T = 6 M).
